Test results published in patent US20260176320A1, “MODULATORS OF G-PROTEIN COUPLED RECEPTORS” (priority 2018, published 2026).
pEC50: −log10 of the molar value. Where two headings read alike, the source gives them in different places.

Legend:
Type in all cases: cell-based
[1] = target: T1, GLP-1R (Homo sapiens, UniProt P43220); assay: HitHunter cAMP assay (GLP-1R); settings: cAMP; for Emax: read-out: (Emax) GLP-1R
Summary of the method: (§1)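 Cells were resuspended in HBSS plus HEPES, IBMX (625 μM) and BSA, then dispensed with antibody at 10,000 per well. Agonists followed as 22-point twofold series, 30 min at room temperature. Antibody reagent and detection steps ran 1 h and overnight in the dark before luminescence.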

[2] = target: T2, GIP-R (Homo sapiens, UniProt P48546); assay: HitHunter cAMP assay (GIP-R); settings: cAMP; for Emax: read-out: (Emax) GIP-R
T2 sequence (P48546 22-466): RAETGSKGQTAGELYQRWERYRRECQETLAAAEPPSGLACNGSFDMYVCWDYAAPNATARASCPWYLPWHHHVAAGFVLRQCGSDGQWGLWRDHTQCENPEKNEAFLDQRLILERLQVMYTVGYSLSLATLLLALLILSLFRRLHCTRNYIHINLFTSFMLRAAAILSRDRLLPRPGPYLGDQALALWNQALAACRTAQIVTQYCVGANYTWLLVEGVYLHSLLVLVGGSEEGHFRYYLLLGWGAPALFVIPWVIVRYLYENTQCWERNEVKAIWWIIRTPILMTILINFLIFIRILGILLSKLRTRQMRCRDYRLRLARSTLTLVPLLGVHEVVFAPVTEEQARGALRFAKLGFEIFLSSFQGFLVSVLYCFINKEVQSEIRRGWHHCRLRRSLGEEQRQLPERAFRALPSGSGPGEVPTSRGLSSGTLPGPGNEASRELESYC
Summary of the method: as §1

[3] = target: T1, GLP-1R; assay: PathHunter β-arrestin assay
Summary of the method: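 Agonist concentration–response (22 points, 2-fold steps, duplicates) was run on cells plated the previous day in BSA-supplemented (0.2%) medium. Stimulation lasted 90 min at 37 °C, followed by a 3 h dark incubation with detection reagent at room temperature and a luminescence read.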

[4] = read-out: EC50 GIP-R/nM, Table 3
[5] = read-out: EC50 GIP-R/nM, Table 3A
[6] = Table 3, read-out: EC50 GLP-1R/nM
[7] = Table 3A, read-out: EC50 GLP-1R/nM
[8] = Table 3, read-out: EC50 GIP-R/nM
[9] = Table 3A, read-out: EC50 GIP-R/nM
[10] = PathHunter β-arrestin assay, read-out: β-arrestin activity EC50

T1 sequence (P43220 24-463): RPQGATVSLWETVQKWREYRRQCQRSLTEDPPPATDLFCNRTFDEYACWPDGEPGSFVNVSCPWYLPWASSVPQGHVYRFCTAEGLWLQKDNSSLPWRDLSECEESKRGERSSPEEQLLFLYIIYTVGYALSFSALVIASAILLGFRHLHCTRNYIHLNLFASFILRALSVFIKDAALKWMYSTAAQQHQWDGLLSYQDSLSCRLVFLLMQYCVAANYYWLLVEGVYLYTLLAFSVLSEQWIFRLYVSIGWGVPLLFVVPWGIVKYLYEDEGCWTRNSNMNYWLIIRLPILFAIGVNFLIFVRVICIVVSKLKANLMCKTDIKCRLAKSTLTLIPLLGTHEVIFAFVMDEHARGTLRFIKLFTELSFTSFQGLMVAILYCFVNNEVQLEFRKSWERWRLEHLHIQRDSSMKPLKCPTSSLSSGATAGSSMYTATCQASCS

Compound	EC50 ([1]; EC50 GLP-1R/nM, Table 3)	EC50 ([1]; EC50 GLP-1R/nM, Table 3A)	Emax ([1]; Table 3)	Emax ([1]; Table 3A)	EC50 ([2]; EC50 GIP-R/nM, Table 3)	EC50 ([2]; EC50 GIP-R/nM, Table 3A)	Emax ([2]; Table 3)	Emax ([2]; Table 3A)	pEC50 [3]	EC50 [2, 4]	EC50 [2, 5]	EC50 [1, 6]	EC50 [1, 7]	EC50 [2, 8]	EC50 [2, 9]	pEC50 [3, 10]
CCCCCCCCCCCCCCCC(=O)N[C@@H](CCC(=O)NCCCC[C@H](NC(=O)[C@H](CO)NC(=O)[C@@H]1CCCN1C(=O)[C@@H]1CCCN1C(=O)[C@@H]1CCCN1C(=O)[C@H](C)NC(=O)CNC(=O)[C@H](CO)NC(=O)[C@H](CO)NC(=O)[C@@H]1CCCN1C(=O)CNC(=O)CNC(=O)[C@H](C)NC(=O)[C@H](CC(C)C)NC(=O)[C@H](CC(C)C)NC(=O)[C@H](Cc1c[nH]c2ccccc12)NC(=O)[C@H](CC(N)=O)NC(=O)[C@@H](NC(=O)[C@H](Cc1ccccc1)NC(=O)[C@H](CCC(=O)O)NC(=O)C(C)(C)NC(=O)[C@H](C)NC(=O)[C@H](C)NC(=O)[C@H](CCC(N)=O)NC(=O)[C@H](CCCCN)NC(=O)[C@H](CC(=O)O)NC(=O)[C@H](CC(C)C)NC(=O)[C@H](Cc1ccc(O)cc1)NC(=O)[C@@H](NC(=O)[C@H](CO)NC(=O)[C@H](Cc1ccc(O)cc1)NC(=O)[C@H](CC(=O)O)NC(=O)[C@H](CO)NC(=O)[C@@H](NC(=O)[C@H](Cc1ccccc1)NC(=O)[C@@H](NC(=O)CNC(=O)[C@H](CCC(=O)O)NC(=O)CSCC(=O)NCCN1C(=O)CC[C@H](C)C1=O)[C@@H](C)O)[C@@H](C)O)[C@@H](C)CC)C(C)C)C(N)=O)C(=O)O [Compound 92]	1 to 10 nM	1 to 10 nM	94 to 104%	94 to 104%	0.1 to 1 nM	0.1 to 1 nM	85 to 88%	85 to 88%	< 6.00	–	–	–	–	–	–	–
CC[C@H](C)[C@H](NC(=O)[C@H](CO)NC(=O)[C@H](Cc1ccc(O)cc1)NC(=O)[C@H](CC(=O)O)NC(=O)[C@H](CO)NC(=O)[C@@H](NC(=O)[C@H](Cc1ccccc1)NC(=O)[C@@H](NC(=O)CNC(=O)[C@H](CCC(=O)O)NC(=O)CSCC(=O)NCCN1C(=O)c2ccc(Cl)cc2C1=O)[C@@H](C)O)[C@@H](C)O)C(=O)N[C@@H](Cc1ccc(O)cc1)C(=O)N[C@@H](CC(C)C)C(=O)N[C@@H](CC(=O)O)C(=O)N[C@@H](CCCCN)C(=O)N[C@@H](CCC(N)=O)C(=O)N[C@@H](C)C(=O)N[C@@H](C)C(=O)NC(C)(C)C(=O)N[C@@H](CCC(=O)O)C(=O)N[C@@H](Cc1ccccc1)C(=O)N[C@H](C(=O)N[C@@H](CC(N)=O)C(=O)N[C@@H](Cc1c[nH]c2ccccc12)C(=O)N[C@@H](CC(C)C)C(=O)N[C@@H](CC(C)C)C(=O)N[C@@H](C)C(=O)NCC(=O)NCC(=O)N1CCC[C@H]1C(=O)N[C@@H](CO)C(=O)N[C@@H](CO)C(=O)NCC(=O)N[C@@H](C)C(=O)N1CCC[C@H]1C(=O)N1CCC[C@H]1C(=O)N1CCC[C@H]1C(=O)N[C@@H](CO)C(=O)N[C@@H](CCCCN)C(N)=O)C(C)C [Compound 161]	10 to 100 nM	10 to 100 nM	89 to 101%	89 to 101%	–	–	58 to 107%	58 to 107%	< 6.00	1 to 100 nM	1 to 100 nM	–	–	–	–	–
CC[C@H](C)[C@H](NC(=O)[C@H](CO)NC(=O)[C@H](Cc1ccc(O)cc1)NC(=O)[C@H](CC(=O)O)NC(=O)[C@H](CO)NC(=O)[C@@H](NC(=O)[C@H](Cc1ccccc1)NC(=O)[C@@H](NC(=O)CNC(=O)[C@H](CCC(=O)O)NC(=O)CSCC(=O)NCCN1C(=O)c2cccc(Cl)c2C1=O)[C@@H](C)O)[C@@H](C)O)C(=O)N[C@@H](Cc1ccc(O)cc1)C(=O)N[C@@H](CC(C)C)C(=O)N[C@@H](CC(=O)O)C(=O)N[C@@H](CCCCN)C(=O)N[C@@H](CCC(N)=O)C(=O)N[C@@H](C)C(=O)N[C@@H](C)C(=O)NC(C)(C)C(=O)N[C@@H](CCC(=O)O)C(=O)N[C@@H](Cc1ccccc1)C(=O)N[C@H](C(=O)N[C@@H](CC(N)=O)C(=O)N[C@@H](Cc1c[nH]c2ccccc12)C(=O)N[C@@H](CC(C)C)C(=O)N[C@@H](CC(C)C)C(=O)N[C@@H](C)C(=O)NCC(=O)NCC(=O)N1CCC[C@H]1C(=O)N[C@@H](CO)C(=O)N[C@@H](CO)C(=O)NCC(=O)N[C@@H](C)C(=O)N1CCC[C@H]1C(=O)N1CCC[C@H]1C(=O)N1CCC[C@H]1C(=O)N[C@@H](CO)C(=O)N[C@@H](CCCCN)C(N)=O)C(C)C [Compound 162]	10 to 100 nM	10 to 100 nM	42 to 46%	42 to 46%	–	–	103 to 107%	103 to 107%	< 6.00	0.1 to 10 nM	0.1 to 10 nM	–	–	–	–	–
CCCCCCCCCCCCCCCC(=O)N[C@@H](CCC(=O)NCCCC[C@H](NC(=O)[C@H](CO)NC(=O)[C@@H]1CCCN1C(=O)[C@@H]1CCCN1C(=O)[C@@H]1CCCN1C(=O)[C@H](C)NC(=O)CNC(=O)[C@H](CO)NC(=O)[C@H](CO)NC(=O)[C@@H]1CCCN1C(=O)CNC(=O)CNC(=O)[C@H](C)NC(=O)[C@H](CC(C)C)NC(=O)[C@H](CC(C)C)NC(=O)[C@H](Cc1c[nH]c2ccccc12)NC(=O)[C@H](CC(N)=O)NC(=O)[C@@H](NC(=O)[C@H](Cc1ccccc1)NC(=O)[C@H](CCC(=O)O)NC(=O)C(C)(C)NC(=O)[C@H](C)NC(=O)[C@H](C)NC(=O)[C@H](CCC(N)=O)NC(=O)[C@H](CCCCN)NC(=O)[C@H](CC(=O)O)NC(=O)[C@H](CC(C)C)NC(=O)[C@H](Cc1ccc(O)cc1)NC(=O)[C@@H](NC(=O)[C@H](CO)NC(=O)[C@H](Cc1ccc(O)cc1)NC(=O)[C@H](CC(=O)O)NC(=O)[C@H](CO)NC(=O)[C@@H](NC(=O)[C@H](Cc1ccccc1)NC(=O)[C@@H](NC(=O)CNC(=O)[C@H](CCC(=O)O)NC(=O)C(C)(C)CNC(=O)CCN1CCCCC1=O)[C@@H](C)O)[C@@H](C)O)[C@@H](C)CC)C(C)C)C(N)=O)C(=O)O [Compound 4]	–	–	100%	100%	–	–	23%	23%	–	–	–	0.1 to 1 nM	< 0.1 nM	1 to 10 nM	10 to 100 nM	6.00 to 8.00
CCCCCCCCCCCCCCCC(=O)N[C@@H](CCC(=O)NCCCC[C@H](NC(=O)[C@H](CO)NC(=O)[C@@H]1CCCN1C(=O)[C@@H]1CCCN1C(=O)[C@@H]1CCCN1C(=O)[C@H](C)NC(=O)CNC(=O)[C@H](CO)NC(=O)[C@H](CO)NC(=O)[C@@H]1CCCN1C(=O)CNC(=O)CNC(=O)[C@H](C)NC(=O)[C@H](CC(C)C)NC(=O)[C@H](CC(C)C)NC(=O)[C@H](Cc1c[nH]c2ccccc12)NC(=O)[C@H](CC(N)=O)NC(=O)[C@@H](NC(=O)[C@H](Cc1ccccc1)NC(=O)[C@H](CCC(=O)O)NC(=O)C(C)(C)NC(=O)[C@H](C)NC(=O)[C@H](C)NC(=O)[C@H](CCC(N)=O)NC(=O)[C@H](CCCCN)NC(=O)[C@H](CC(=O)O)NC(=O)[C@H](CC(C)C)NC(=O)[C@H](Cc1ccc(O)cc1)NC(=O)[C@@H](NC(=O)[C@H](CO)NC(=O)[C@H](Cc1ccc(O)cc1)NC(=O)[C@H](CC(=O)O)NC(=O)[C@H](CO)NC(=O)[C@@H](NC(=O)[C@H](Cc1ccccc1)NC(=O)[C@@H](NC(=O)CNC(=O)[C@H](CCC(=O)O)NC(=O)CSCC(=O)N(C)CCN1C(=O)CSC1=O)[C@@H](C)O)[C@@H](C)O)[C@@H](C)CC)C(C)C)C(N)=O)C(=O)O [Compound 93]	0.1 to 1 nM	0.1 to 1 nM	99%	99%	1 to 10 nM	1 to 10 nM	73%	73%	< 6.00	–	–	–	–	–	–	–
CC[C@H](C)[C@H](NC(=O)[C@H](CO)NC(=O)[C@H](Cc1ccc(O)cc1)NC(=O)[C@H](CC(=O)O)NC(=O)[C@H](CO)NC(=O)[C@@H](NC(=O)[C@H](Cc1ccccc1)NC(=O)[C@@H](NC(=O)CNC(=O)[C@H](CCC(=O)O)NC(=O)CCCNC(=O)CN1C(=O)CSC1=O)[C@@H](C)O)[C@@H](C)O)C(=O)N[C@@H](Cc1ccc(O)cc1)C(=O)N[C@@H](CC(C)C)C(=O)N[C@@H](CC(=O)O)C(=O)N[C@@H](CCCCN)C(=O)N[C@@H](CCC(N)=O)C(=O)N[C@@H](C)C(=O)N[C@@H](C)C(=O)NC(C)(C)C(=O)N[C@@H](CCC(=O)O)C(=O)N[C@@H](Cc1ccccc1)C(=O)N[C@H](C(=O)N[C@@H](CC(N)=O)C(=O)N[C@@H](Cc1c[nH]c2ccccc12)C(=O)N[C@@H](CC(C)C)C(=O)N[C@@H](CC(C)C)C(=O)N[C@@H](C)C(=O)NCC(=O)NCC(=O)N1CCC[C@H]1C(=O)N[C@@H](CO)C(=O)N[C@@H](CO)C(=O)NCC(=O)N[C@@H](C)C(=O)N1CCC[C@H]1C(=O)N1CCC[C@H]1C(=O)N1CCC[C@H]1C(=O)N[C@@H](CO)C(=O)N[C@@H](CCCCN)C(N)=O)C(C)C [Compound 178]	–	–	97%	97%	–	–	38%	38%	–	–	–	1 to 10 nM	1 to 10 nM	100 to 1000 nM	100 to 1000 nM	< 6.00
